Assay results published in ChEMBL document CHEMBL5352447, “Development of [1,2]oxazoloisoindoles tubulin polymerization inhibitors: Further chemical modifications and potential therapeutic effects against lymphomas” (Eur J Med Chem, 2022).

Experiments:
A498 = assay: Antiproliferative activity against human A498 cells assessed as cell growth inhibition incubated for 72 hrs by MTT assay; format: functional
MOLT-4 = assay: Antiproliferative activity against human MOLT-4 cells assessed as cell growth inhibition incubated for 72 hrs by MTT assay; format: functional
NCI/ADR-RES = assay: Antiproliferative activity against human NCI-ADR-RES cells assessed as cell growth inhibition incubated for 72 hrs by MTT assay; format: functional
MDA-MB-231 = assay: Antiproliferative activity against human MDA-MB-231 cells assessed as cell growth inhibition incubated for 72 hrs by MTT assay; format: functional
HOP-62 = assay: Antiproliferative activity against human HOP-62 cells assessed as cell growth inhibition incubated for 72 hrs by MTT assay; format: functional
IGROV-1 = assay: Antiproliferative activity against human IGROV-1 cells assessed as cell growth inhibition incubated for 72 hrs by MTT assay; format: functional
HCC 2998 = assay: Antiproliferative activity against human HCC 2998 cells assessed as cell growth inhibition incubated for 72 hrs by MTT assay; format: functional
NCI-H522 = assay: Antiproliferative activity against human NCI-H522 cells assessed as cell growth inhibition incubated for 72 hrs by MTT assay; format: functional
KM12 = assay: Antiproliferative activity against human KM12 cells assessed as cell growth inhibition incubated for 72 hrs by MTT assay; format: functional
LOX IMVI = assay: Antiproliferative activity against human LOX IMVI cells assessed as cell growth inhibition incubated for 72 hrs by MTT assay; format: functional
NCI-H226 = assay: Antiproliferative activity against human NCI-H226 cells assessed as cell growth inhibition incubated for 72 hrs by MTT assay; format: functional
OVCAR-3 = assay: Antiproliferative activity against human OVCAR-3 cells assessed as cell growth inhibition incubated for 72 hrs by MTT assay; format: functional
HL-60(TB) = assay: Antiproliferative activity against human HL-60(TB) cells assessed as cell growth inhibition incubated for 72 hrs by MTT assay; format: functional
OVCAR-4 = assay: Antiproliferative activity against human OVCAR-4 cells assessed as cell growth inhibition incubated for 72 hrs by MTT assay; format: functional
PC-3 = assay: Antiproliferative activity against human PC-3 cells assessed as cell growth inhibition incubated for 72 hrs by MTT assay; format: functional
COLO 205 = assay: Antiproliferative activity against human COLO 205 cells assessed as cell growth inhibition incubated for 72 hrs by MTT assay; format: functional
[1] = Antiproliferative activity against human HBL1 cells assessed as inhibition of cell proliferation incubated for 72 hrs by MTT assay; format: functional, cell-based; conditions: HBL1, 72 h
[2] = Antiproliferative activity against human MINO cells assessed as inhibition of cell proliferation incubated for 72 hrs by MTT assay; format: functional, cell-based
VL51 = assay: Antiproliferative activity against human VL51 cells assessed as inhibition of cell proliferation incubated for 72 hrs by MTT assay; format: functional, cell-based; conditions: VL51, 72 h
CAKI-1 = assay: Antiproliferative activity against human CAKI-1 cells assessed as cell growth inhibition incubated for 72 hrs by MTT assay; format: functional
MCF7 = assay: Cytotoxicity against human MCF7 cells assessed as cell growth inhibition; format: functional, cell-based
Tubulin = assay: Inhibition of tubulin assembly (unknown origin); format: protein-complex assay, Homo sapiens
Tubulin (Homo sapiens) = Tubulin (Homo sapiens) (UniProt P68371+Q9H4B7+P0DPH7+P68366+Q13509+Q71U36+P04350+Q3ZCM7+P07437+P68363+Q9BQE3+Q6PEY2+Q13885+Q9BVA1+Q9BUF5); assay: Inhibition of [3H]Colchicine binding to tubulin (unknown origin) at 5 uM relative to control; format: protein-complex assay
K562 = assay: Antiproliferative activity against human K562 cells assessed as cell growth inhibition incubated for 72 hrs by MTT assay; format: functional

Compound | GI50 (A498) [µM] | GI50 (MOLT-4) [µM] | GI50 (NCI/ADR-RES) [µM] | GI50 (MDA-MB-231) [µM] | GI50 (HOP-62) [µM] | GI50 (IGROV-1) [µM] | GI50 (HCC 2998) [µM] | GI50 (NCI-H522) [µM] | GI50 (KM12) [µM] | GI50 (LOX IMVI) [µM] | GI50 (NCI-H226) [µM] | GI50 (OVCAR-3) [µM] | GI50 (HL-60(TB)) [µM] | GI50 (OVCAR-4) [µM] | GI50 (PC-3) [µM] | GI50 (COLO 205) [µM] | IC50 [1] [µM] | IC50 [2] [µM] | IC50 (VL51) [µM] | GI50 (CAKI-1) [µM] | other results
CCOC(=O)c1noc2c1CCc1c-2cn(Cc2ccc(OC)cc2)c1-c1cc(OC)c(OC)c(OC)c1 | 2.77 | 2.7 | 3.52 | 2.7 | 3 | 2.45 | 5.17 | 0.37 | 0.91 | 0.65 | > 100 | 0.37 | 0.45 | 20.5 | 2.9 | 1.77 | 1.7 | 1.4 | 1.8 | – | –
COc1ccc(Cn2cc3c(c2-c2cc(OC)c(OC)c(OC)c2)CCc2c(CO)noc2-3)cc1 | 0.28 | 0.44 | 0.26 | 0.63 | – | 0.49 | 1.34 | 0.15 | 0.27 | 0.57 | 15 | 0.22 | 0.21 | 5.44 | 0.27 | 0.3 | 1.7 | 1.4 | 1.6 | – | –
COc1ccc(Cn2cc3c(c2-c2cc(OC)c(OC)c(OC)c2)CCc2c(CN4CCCC4)noc2-3)cc1 | 0.78 | 1.47 | 0.55 | 3.05 | 1 | 0.89 | 1.84 | 0.47 | 12.6 | – | 2.07 | – | 0.32 | 21.4 | 0.64 | 0.94 | 0.6 | 0.5 | 0.15 | 0.45 | IC50 (MCF7): 1.1 µM; IC50 (Tubulin): 2.8 µM; inhibition (Tubulin (Homo sapiens)): 24%; GI50 (K562): 0.35 µM
COc1ccc(Cn2cc3c(c2-c2cc(OC)c(OC)c(OC)c2)CCc2c(CN4CCOCC4)noc2-3)cc1 | 0.32 | 3.06 | 0.43 | 2.25 | 1 | 0.81 | 2.17 | 0.3 | 0.4 | 0.62 | 0.89 | – | 0.39 | 6.84 | 0.65 | 0.59 | 0.5 | 0.5 | 0.2 | 0.38 | IC50 (MCF7): 0.47 µM; IC50 (Tubulin): 1 µM; inhibition (Tubulin (Homo sapiens)): 33%; GI50 (K562): 0.43 µM
